Reference: patent publication US12479816B2, “20-HETE formation inhibitors” (UNIVERSITY OF PITTSBURGH—OF THE COMMONWEALTH SYSTEM OF …, priority 2019, dated 2025)
pIC50: −log10 of the molar value. Where two headings read alike, the source gives them in different places.

Tests used:
[1] = system: 20-HETE formation (CYP4) in HLM; assay: Inhibition of 20-HETE formation at 250 or 500 nM in HLM microsomal incubations; type: biochemical, human; conditions: 500 nM compound; HLM 300 μg/ml, AA 100 μM, 20 min
Outline: (§1)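 Microsomes (300 μg/ml) or rCYP4F2 (25 pmol/mL) were incubated with 100 μM arachidonic acid, 1 mM NADPH and test compound in 0.12 M potassium phosphate with 5 mM MgCl2 for 20 min at 37° C. 20-HETE was quantified by UPLC-MS/MS with 20-HETE-d6 internal standard and expressed as percent of vehicle (n=3).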

[2] = system: 20-HETE formation (CYP4) in HLM; assay: IC50 determination, 20-HETE formation in HLM; type: biochemical, human; conditions: HLM 300 μg/ml, AA 100 μM, 12 concentrations
Description: (§2) Microsomal incubations contained HLM, RLM (300 μg/ml), AA (100 μM), NADPH (1 mM) and test compounds at 12 concentrations (0.1 nM-50 μM) in a 1 ml total volume in microsomal incubation buffer (0.12 M potassium phosphate buffer containing 5 mM magnesium chloride). Reaction was started by adding NADPH to the incubates and was carried out at 37° C. in a shaking water bath for 20 min. Reaction was stopped by placing tubes on ice, followed by adding 12.5 μl 20-HETE-d6 as internal standard to each sample. Microsomal incubations were extracted with 3 ml ethyl ether twice, dried down under nitrogen gas and reconstituted in 125 μl 80:20 methanol:deionized H2O for analysis. 20-HETE formation was quantified using the validated UPLC-MS/MS assay described above and normalized by vehicle group. HET0016 (250 nM) was used as positive control. Incubates without NADPH group served as the negative control. IC50 was determined by fitting the dose-response curve using Graphpad Prism nonlinear regression.

rCYP4F2 = biological target: T1, rCYP4F2 (Homo sapiens, UniProt P78329); assay: Inhibition of 20-HETE formation at 250 or 500 nM in rCYP4F2 incubations; type: biochemical; conditions: 500 nM compound; rCYP4F2 25 pmol/mL; read-out: rCYP4F2 % inh. @ 500 nM
T1 sequence (P78329 5-520): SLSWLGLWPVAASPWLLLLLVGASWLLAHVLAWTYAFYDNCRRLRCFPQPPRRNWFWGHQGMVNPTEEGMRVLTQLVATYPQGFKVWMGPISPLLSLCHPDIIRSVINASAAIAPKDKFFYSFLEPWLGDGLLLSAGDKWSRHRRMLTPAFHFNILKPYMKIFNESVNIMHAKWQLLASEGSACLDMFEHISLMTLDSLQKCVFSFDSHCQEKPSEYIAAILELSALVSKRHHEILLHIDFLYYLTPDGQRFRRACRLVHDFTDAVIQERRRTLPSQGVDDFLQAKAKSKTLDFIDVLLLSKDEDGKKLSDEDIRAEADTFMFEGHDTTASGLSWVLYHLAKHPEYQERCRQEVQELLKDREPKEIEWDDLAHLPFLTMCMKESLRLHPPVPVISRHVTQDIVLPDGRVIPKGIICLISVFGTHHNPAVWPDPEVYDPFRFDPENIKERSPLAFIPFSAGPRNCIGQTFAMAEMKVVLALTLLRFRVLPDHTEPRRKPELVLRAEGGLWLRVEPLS
Outline: as §1

[3] = biological target: formation of EETs and DiHETs (epoxygenase activity) in HLM; assay: Selectivity: inhibition of EETs and DiHETs formation (epoxygenase activity) in HLM; type: biochemical, human; conditions: for pIC50: sum of EETs and DiHETs
Description: Selectivity of compounds for inhibition of 20-HETE formation vs inhibition of formation of 8,9-, 11,12-, 14,15-EET and 5,6-, 8,9-, 11,12-, 14,15-DiHETs was assessed via the simultaneous monitor of formation of 20-HETE and those metabolites under the UPLC-MS/MS assay conditions described above using HLM incubations and the same 12 test compound concentrations (0.1 nM-[…]) used for the IC50 determination experiments. At each of the 12 concentrations, the selectivity of 20-HETE inhibition over the other metabolites was compared. Epoxygenase activity was assessed by the sum of EETs and DiHETEs as percentage of control.

[4] = HLM stability determination; type: in vitro ADME, human; conditions: HLM 500 μg/ml, 1 μM compound, NADPH, relative to 0 min
Description: HLM stability determinations shown in Table 3 were obtained as follows. Microsomal incubates contained HLM (500 μg/ml), test compounds (1 μM) and NADPH (1.3 mM) in a 1 ml total volume of microsomal incubation buffer (0.12 M potassium phosphate buffer containing 5 mM magnesium chloride). Reaction was started by adding NADPH to the incubates and was carried out at 37° C. in a shaking water bath for 60 min. At 0, 15, 30, 45, 60 min, a 50 μl aliquot of incubates was taken out and reaction was stopped by adding aliquot into 200 μl ice-cold acetonitrile. After centrifugation at 14000×g for 5 min, 200 μl supernatant was taken out for UPLC-MS/MS analysis as described above. Values at 0 min were used as corresponding control for test compounds. Varapamil, metoprolol, and warfarin, categorized as fast, moderate and slow metabolism, were used as positive control. Incubates without NADPH group served as negative control.

[5] = system: 20-HETE formation (CYP4) in RKM; assay: Inhibition of 20-HETE formation at 250 or 500 nM in RKM microsomal incubations; type: biochemical, rat; conditions: 500 nM compound; RKM 300 μg/ml
Outline: as §1

[6] = system: 20-HETE formation (CYP4) in RLM; assay: Inhibition of 20-HETE formation at 250 or 500 nM in RLM microsomal incubations; type: biochemical, rat; conditions: 500 nM compound; RLM 300 μg/ml
Outline: as §1

[7] = Turbidometric solubility determination; type: physicochemical; conditions: PBS with 1% DMSO, aqueous buffer, kinetic from dmso stock, room temperature
Outline: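 Precipitation was detected as a significant rise in absorbance at 620 nm over background, and this point set the maximum solubility. Compound was tested in PBS with 1% DMSO at final concentrations from 0 to 600 μM, in triplicate, after 2 h of shaking at room temperature.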

[8] = system: 20-HETE formation (CYP4) in RLM; assay: IC50 determination, 20-HETE formation in RLM; type: biochemical, rat; conditions: RLM 300 μg/ml, AA 100 μM, 12 concentrations
Description: as §2

SMILES | HLM % inh. @ 500 nM [1] [%] | IC50 [2] [µM] | inhibition at 0.5 µM (rCYP4F2) [%] | pIC50 [3] | Stability HLM % @ 30 min [4] [%] | RKM % inh. @ 500 nM [5] [%] | RLM % inh. @ 500 nM [6] [%] | solubility at 2 h ([7]; OD620, read-out: Max Solub) [µM] | solubility at 2 h ([7]; read-out: Solubility_ug/mL) [µg/mL] | pIC50 [8] | EETs Inhibition, % @ 50,000 ([3]; at 50,000 (nM per column head))
c1ccc(CC2CCN(c3ccn[nH]3)CC2)cc1 [Compound 2, 4-Benzyl-1-(1H-pyrazol-5-yl)piperidine] | 59.90 | 0.15 | 47.6 | < 4.30 | 61 | 0.00 | 0.00 |  |  |  | 
CC(=O)Nc1ccc(C2CCN(c3cn[nH]c3)CC2)cc1 [Compound 30, N-(4-(1-(1H-Pyrazol-4-yl)piperidin-4-yl)phenyl)acetamide] | 86.00 | 0.05 | 95 |  | 0 | 40.00 | 37.00 | 482 | 137 |  | 
COc1ccc(C2CCN(c3cn[nH]c3)CC2)cc1F [Compound 44, 4-(3-Fluoro-4-methoxyphenyl)-1-(1H-pyrazol-4-yl)piperidine] | 85.00 | 0.05 | 86 |  | 100 | 21.00 | 42.00 |  |  | 6.47 | 
COc1cccc(C2CCN(c3ccn[nH]3)CC2)c1 [Compound 7, 4-(3-Methoxyphenyl)-1-(1H-pyrazol-5-yl)piperidine] | 51.70 | 0.19 | 6.5 |  |  | 0.00 | 42.30 | 494 | 127 |  | 2.6% @ 50,000
COc1cccc(C2CCN(c3cn[nH]c3)CC2)c1 [Compound 8, 4-(3-Methoxyphenyl)-1-(1H-pyrazol-4-yl)piperidine] | 62.70 | 0.17 | 48.9 | < 4.30 |  | 0.00 | 45.50 | 111 | 29 |  | 
